Results as given in patent US11419803B2, “Skin darkening composition” (Conopco, Inc., priority 2017, dated 2022).

Assays:
[1] = test system: Neonatal foreskin primary human epidermal melanocytes; assay: Cell viability, calcein method; type: cell-based
Procedure: (§1) All test compounds were purchased from SIGMA-ALDRICH as powders. They were tested at various concentrations in cell culture (see below). Forskolin (SIGMA Cat. # F6886) was used as reference comparators, as they have been reported to increase melanin content. Neonatal foreskin primary human epidermal melanocytes were procured from Cascade Biologicals (labelled passage P0). Melanocytes were maintained in Medium 254CF (Cascade Cat. # M-254CF-500) supplemented with human melanocyte growth supplement (Cascade; Cat. # S-002-5), hereafter referred to as MGM. Cells were maintained at 37° C. in a humidified incubator with 5% CO2 atmosphere.
(§2) 50,000 cells were seeded in 24 well plate in MGM; after 24 hours, cultures were treated with various concentrations of the test materials and left undisturbed for a further period of 72 hours. Comparative vehicle controls of 0.25% (v/v) DMSO were also set up in parallel, simultaneously. At the end of the incubation period, cell viability was determined using the calcein method.
Briefly, cell culture spent media was removed and cells washed once with 0.4 ml of 1× PBS-Ca—Mg solution. Fresh 1 μM calcein-AM was added (0.2 ml/well), including to control wells without cells. Plates were covered with aluminium foil and incubated for 30 minutes. at 37° C. in the regular CO2 incubator. Calcein fluorescence was then measured (λmax 490 nm and λmax 520 nm) in TECAN® M1000 Infinite series plate reader.
(§3) Calcein fluorescence values were ratio converted in 0 to 100 scale (% viability), with 100 representing the value of the 0.25% DMSO sample. % Melanin content was calculated as the ratio between OD405 nm value of any sample to that of DMSO reference sample.

[2] = test system: Neonatal foreskin primary human epidermal melanocytes; assay: Melanin content assay; type: cell-based; conditions: 72 hours, compared to vehicle control = 100
Procedure: as §1, §2
After calcein fluorescence readings were obtained, cells were drained and added fresh 125 μl of 1N NaOH (in 10% DMSO) per well. Cells were lysed by resuspension and incubation (60° C./1 hour.). Then this lysate was transferred to a fresh […] and measured OD405 nm in a TECAN M1000 plate reader (estimate of relative melanin content).
as §3
Normalized melanin content value was then calculated as 100*(% Melanin Content)/(% Cellular viability).
The percentage Increase in melanin content was estimated as [(Normalized melanin content)−100]

Compound	% Viability ([1]; human, 72 h, 6.25 µM)	% Viability ([1]; human, 72 h, 12.5 µM)	% Viability ([1]; human, 72 h, 25 µM)	% Melanin content ([2]; 6.25 micromolar)	% Melanin content ([2]; 12.5 micromolar)	% Melanin content ([2]; 25 micromolar)	% Viability ([1]; 10 micromolar, 72 hours, relative to 0.25% DMSO control = 100)	% Viability ([1]; 15 micromolar, 72 hours, relative to 0.25% DMSO control = 100)	% Viability ([1]; 20 micromolar, 72 hours, relative to 0.25% DMSO control = 100)	% Viability ([1]; 25 micromolar, 72 hours, relative to 0.25% DMSO control = 100)	% Melanin content ([2]; 10 micromolar)	% Melanin content ([2]; 15 micromolar)	% Melanin content ([2]; 20 micromolar)	% Viability ([1]; human, 72 h, 10 µM)	% Viability ([1]; human, 72 h, 15 µM)	% Viability ([1]; human, 72 h, 20 µM)	% Viability ([1]; human, 72 h, 5 µM)	% Melanin content ([2]; 5 micromolar)
CCCCCCCc1ccc(C(=O)O)cc1 [Example 1, 4-heptyl benzoic acid]	102%	102%	93%	124%	129%	113%	–	–	–	–	–	–	–	–	–	–	–	–
CCCCCCCOc1ccc(C(=O)O)cc1 [Example 2, 4-heptyloxybenzoic acid]	–	–	–	–	–	137%	94%	96%	95%	96%	117%	126%	129%	–	–	–	–	–
CCCCCCCCOc1ccc(C(=O)O)cc1 [Example 3, 4-octyloxybenzoic acid]	–	–	86%	–	–	86%	–	–	–	–	127%	144%	127%	101%	103%	100%	–	–
CCCCCCCCCOc1ccc(C(=O)O)cc1 [Example 4, 4-nonyloxybenzoic acid]	–	–	103%	–	–	137%	–	–	–	–	129%	136%	130%	109%	109%	103%	102%	126%
CCCCCCCCCCCOc1ccc(C(=O)O)cc1 [Example 5, 4-undecyloxybenzoic acid]	–	–	79%	–	–	120%	–	–	–	–	136%	146%	134%	97%	100%	90%	–	–
